The subject of data set [1] is AVM-BEC. Type of data set: cell-based. The protocol: The apoptotic and necrotic cell death was measured by flow cytometry using PI/Annexin V-Alexa Fluor 488 (ThermoFisher Scientific), following the manufacturer's instructions. After 24 h-treatments, cells were harvested, washed with cold PBS, and suspended in Annexin Binding Buffer (ThermoFisher Scientific) at a concentration of 1×10^6 cells/mL. Following addition of Annexin V and PI, cells were incubated at room temperature for 15 min in the ? dark, and additional 400 μL of 1× binding buffer was added to each sample. Positive controls of cell death were obtained treating cells with 50% ethanol. Ten thousand cells/sample were analyzed using a BD LSRII flow cytometer with the proper compensation controls and the FlowJo_V10 analysis software.
Cells were collected and analyzed for apoptosis, while supernatants were collected and analyzed for necrosis (Cell Death Detection ELISA^PLUS), and for PAI-1, VEGF (Quantikine ELISA Kit, R&D Systems) and TGF-β (Proteintech) protein content, following the manufacturers' instructions. Absorbance was measured using a Fluostar Omega microplate reader (BMG Labtech). Data were normalized to kit controls and number of producing cells.

For data set [2], the system named is AVM-BEC. The data set can be described thus: Biotinylated miR-18a uptake analysis in AVM-BEC. Type of data set: cell-based, human. The settings on record: biotinylated probes, 30 min at 37° C., no transfection reagent, Ago-2 0.4 nM when indicated. The protocol:
Biotinylated hsa-miR-18a-5p sense and hsa-miR-18a-3p sense probes were acquired from Integrated DNA Technologies (IDT) and reconstituted in RNAse-free water. A scramble sequence of the miR-18a was designed using GenScript®, and the biotinylated probe using this sequence was also acquired from IDT and reconstituted in RNAse-free water. […] Then, media was replaced by fresh media containing the corresponding probes without Lipofectamine, and AVM-BEC were incubated for 30 min at 37° C. in shear flow conditions. When indicated, Ago-2 (0.4 nM, Abcam) was co-administered with the probes as the microRNA carrier and stabilizer^1. Cells were then washed with PBS and fixed with 4% paraformaldehyde (PFA). Avidin/Biotin blocking kit (Vector Laboratories) was used to block unspecific bindings, and cells were incubated with Alexa Fluor 488 streptavidin (1:200, Thermo Fisher Scientific) for 1 h at room temperature to detect the tagged microRNAs. DAPI (Thermo Fisher Scientific) was used to detect cell nuclei. Cells were mounted with Dako Fluorescence Mounting Medium. Pictures were taken in a Zeiss LSM 510 confocal microscope (Carl Zeiss Inc.).

The subject of data set [3] is Mgp^−/− mouse model of AVM. The data set can be described thus: Brain appearance and immunostaining of brain sections. Type of data set: in vivo. The settings on record: Mgp^−/− mice, IN 2-weeks. The protocol:
Immunostaining was performed as previously described^15. ([…], Golden […], et al. Glioma-associated endothelial cells are chemoresistant to temozolomide. J Neurooncol. 2009; 95(1):13-22). Primary antibodies used were rabbit anti-MMP2, mouse anti-MMP9 (1:150, Abgent), rabbit anti-phospho-Smad1/5 ([…]/465) (1:50, Abgent), rabbit anti-BMP4, rabbit anti-PAI-1 (1:50, Proteintech), rabbit anti-VEGF (1:50, Santa Cruz Biotechnology), rabbit anti-HIF-1α (1:50, Cell Signaling Technology), and rabbit anti-phospho-Smad3 ([…]/425) (1:50, GeneTex). Secondary antibodies used were biotinylated anti-rabbit and biotinylated anti-mouse (1:300, Vector Laboratories), accordingly. Pictures were taken in an Eclipse 80i microscope (Nikon). Images shown are representative of three-five independent experiments. In vivo efficacy studies were performed using 3-week-old Mgp^+/- C57BL/6 mice^16,17 (Yao Y, Jumabay M, Wang A, Boström K I. Matrix Gla protein deficiency causes arteriovenous malformations in mice. J Clin Invest. 2011; 121(8):2993-3004) (Yao Y, Yao […], et al. Reducing Jagged 1 and 2 levels prevents cerebral arteriovenous malformations in matrix Gla protein deficiency. Proc Nat Acad Sci USA. 2013; 110(47):19071-19076). provided by Dr. Yucheng Yao (UCLA, Los Angeles) and mated to obtain the appropriate genotypes. Only about 10-15% of each litter were born with the Mgp^-/- genotype, and among those, only about 45% survived until the end of the treatment and/or the imaging of the brain vasculature, due to the extreme severity of the disease in this mouse model. These animals not only suffer AVMs in the brain, but all major organs are also affected and dysfunctional. Thus, […] might die due to several causes, including stroke, severe lung inflammation that causes respiratory failure-especially when anesthesia is used-, organ failure due to liver and/or spleen malfunction, heart failure, etc., drastically limiting the number of the Mgp^-/- mice available for the CTA studies. […] Treatment with 0.08 nmol/mouse of miR-18a or scramble microRNA was administered IN daily for 2-weeks. 2.5 μL/nostril were delivered in RNase-free water. Ultra-high-resolution in vivo computed tomography angiography (CTA) was performed in mice for 3D imaging of whole brain vascular architecture^18, ([…], Rendon D, et al. Ultra-High-Resolution In vivo Computed Tomography Imaging of Mouse Cerebrovasculature Using a Long Circulating Blood Pool Contrast Agent. Scientific reports. 2015; 5:10178) as described in Data. The vascular data was quantified using ImageJ. Regions of interest encompassing the Circle of Willis (CoW) and the azygous of the anterior cerebral artery (AzACA) and its branches were selected in CT images using thick slab maximum intensity projection (MIP) or 3D volume rendering. The images were converted to 8-bit grayscale and thresholded to highlight the vasculature containing pixels. The pixels were analyzed as particles and normalized to results from the wildtype mice (WT, Mgp^+/+). Immediately after imaging, mice were euthanized, and brains were frozen in Clear Frozen Section Compound (VWR) and stored at -80° C. Blood was collected for complete blood count (Antech). The lungs, livers, spleens, femurs, and kidneys were harvested and fixed in 10% formalin. Photographs of the stained sections were captured using an Eclipse 80i microscope (Nikon).

For “hsa-miR-18a-5p (UAGGUGCAUCUAGUGCAGAUAG; chemistry not given here; listed as Homo sapiens) [small non-coding RNA molecule involved in post-transcriptional regulation of gene expression; Dharmacon]”, in the data set on AVM-BEC [1], the “cell death (apoptosis, necrosis)” value is “does not increase cell death”. The “uptake: levels of miR-18a detected inside the AVM-BEC and their nuclei” value in the data set with AVM-BEC [2] is on record as “enough to obtain AVM-BEC uptake”. Moreover, in data set [3], the “activation (phosphorylation) of Smad1/5 in brain sections (IHC)” value is recorded as “decreased”, the “expression of BMP4 in brain sections (IHC)” value is “decreased”, the “expression of HIF-1α in brain sections (IHC)” value is “decreased” and the “expression of PAI-1 in brain sections (IHC)” value is “decreased”. In addition, in data set [3], the “expression of VEGF in brain sections (IHC)” value is “decreased”; the “signs of fresh hemorrhage and presence of abnormally enlarged blood vessels in the brain” value is recorded as “reduced”.
